Tested on: PTEN-null endometrial glands (latent endometrial precancers)
Assay: Latent precancers (PTEN-null glands by immunohistochemistry) in paired endometrial biopsies before and after progestin therapy
Type: in vivo, women
Settings: pre versus post therapy
Procedure: Women in Northern Norway (Tromso region) with successive endometrial biopsies taken under different hormonal conditions form the three main experimental groups of this study. Clinical aspects of these patients have been published elsewhere (Vereide, et al., Gynecol Oncol 91:526-33 (2003)), but will be summarized here. […] Just under half (10 of 22 reported in results) received low dose hormonal replacement therapy as follows: norestrin 1 mg/estradiol 2mg daily (6 patients), estriol 1-2mg daily (3 patients), tibolone 2.5 mg daily (1 patient), no therapy (12 patients). All patient materials were compiled from existing pathologic tissues generated as part of routine patient care (“discarded materials”), except for the P-IUD group, which was consented in advance. […]
Paraffin sections of endometrial biopsy and curetting specimens were rehydrated, and underwent antigen retrieval by microwave before overnight (4° C.) incubation with 1:300 murine monoclonal anti-PTEN antibody 6h2.1 (Cascade Biosciences, Winchester, Mass.) as previously described (Mutter, et al, Cancer Res 61:43114 (2001)). Slides were washed, and incubated with appropriate secondary biotinylated immunoglobulin (Vectastain ABC kit, Vector Laboratories, Inc., Burlingame, Calif.) and signal detected by sequential addition of avidin peroxidase and 3,3′-diaminobenzidine. […]

CC(=O)[C@@]1(O)CC[C@H]2[C@@H]3C[C@H](C)C4=CC(=O)CC[C@]4(C)[C@H]3CC[C@@]21C [p-cycle, medroxyprogesterone]
Change of latent precancers after therapy (in words): non-significant changes

Reference: patent US7858332B2, “Chemoprevention of endometrial cancer” (The Brigham and Women's Hospital, Inc., priority 2006, dated 2010)
